Laboratory results: US20220041627A1, “PRODRUGS OF ANTI-CANCER AND ANTI-AUTOIMMUNE DISEASES THERAPEUTIC AGENTS, AND METHODS OF MAKING AND USE THEREOF” (UNIVERSITY OF MARYLAND, BALTIMORE, priority 2018, published 2022)

Legend:
[1] = Cell viability (CCK8) in normal MEC1 cells; format: cell-based
Procedure: FIGS. 2A and 2B illustrate the anticancer effects and selectivity of 5-FU and compounds 1a-1c. Cell viability was analyzed after the breast cancer MCF7 cells (FIG. 2A) and normal MEC1 cells (FIG. 2B) were treated with 5-FU or compounds 1a-1c at different concentrations. Data are presented as mean±SD, n=4.
Cell Counting Kit-8 (CCK8, Dojingo) was used to carry out the cytotoxicity assessment of the prodrugs. Seeded cells were treated with varying compound concentrations for 48-72 h and the CCK8 kit was used to measure the cytotoxicity. For NAC experiments, this ROS scavenger was pre-incubated with the cells for 2 h and then co-incubated with the prodrugs for additional 48 hours unless otherwise noted.
The anticancer effects of new compounds 1a and 1b were tested using the breast cancer MCF7 cells and normal MEC1 cells (FIGS. 2A and 2B). […] These differential killing results highlight the specificity of new prodrugs 1a-1b for cancer cells over normal cells. […] To further verify the role of ROS in the drug release process, the MTT assays was performed, using MCF7 cells pretreated with the ROS scavenger N-Acetyl-Cysteine (NAC).

[2] = system: wild-type C57BL/6 male mice; test: Acute toxicity in mice; format: in vivo; conditions: 100 mg/kg i.p. every other day for 15 days, compared to vehicle group
Procedure: FIGS. 5A and 5B illustrate the survival rate (FIG. 5A) and body weight (FIG. 5B) curves of the various groups of mice. […] Mice were treated every other day by intraperitoneal (i.p.) injection for 15 days, the survival and body weights of the mice were recorded after treatment.
Mice were treated every other day by intraperitoneal (i.p.) injection for 15 days, the survival and body weights of the mice were recorded after treatment.

In the case of `CC1(C)OB(c2ccc(Cn3cc(F)c(=O)[nH]c3=O)cc2)OC1(C)C` [Compound 1a, 5-Fluoro-1-(4-(4,4,5,5-tetramethyl-1,3,2-dioxaborolan-2-yl)benzyl)pyrimidine-2,4(1H,3H)-dione], the viability at 100 µM [1] is reported as over 95% and the body weights [2] is reported as “no obvious changes”.
